Values of other authors as cited in patent US9180191B2, “Treatment of suicidal ideation or behavior using inhibitors of nicotinic acetylcholine receptors” (UNIVERSITY OF SOUTH FLORIDA, priority 2009, dated 2015).
Read-outs that look alike come from different tables or passages of the source.

Columns and labels:
[1] = for risk of neuroleptic malignant syndrome: patients receiving the drug
[2] = system: brain-derived neurotrophic factor (BDNF); settings: in vivo
[3] = for teratogen class: FDA Approved Labeling Text
[4] = system: physiological response to nicotine; settings: chronic administration, rodents
[5] = for reducing suicidal ideation versus placebo: week 8 (endpoint), p<0.001
[6] = treatment resistant psychotic bipolar patients, 24 months of observation
[7] = not given; remark: listed apart in the source
[8] = bipolar I or II disorder, acute bipolar depression
[9] = schizophrenic patients with persistent ongoing symptoms
[10] = not given; remark: listed apart in the source
[11] = major depressive disorder, inadequate response to prior antidepressant, two 6 week studies
[12] = system: serotonergic, dopaminergic, and a-adrenergic receptors
[13] = system: muscarinic cholinergic receptors
[14] = not given; remark: listed apart in the source
[15] = smoking cessation
[16] = clinical trials in schizophrenia
[17] = bipolar I, manic and mixed symptoms

In the case of `O=C([O-])[O-].[Li+].[Li+]` [lithium, Lithium carbonate], the “most commonly observed side effects” value ([1]; lithium, population not given) is given as “tremor, diarrhea, polydipsia, polyuria and nausea”, the “effect on brain BDNF levels” value [2] is given as “increase brain BDNF levels” and the “fatality rate due to suicide after discontinuing lithium compared to the rate during lithium maintenance” value (after discontinuing lithium) is given as 12.6 times higher. For the same molecule, the “incidence of attempted and completed suicide compared to those who did not receive lithium” value (long-term lithium treatment) was 13 fold lower, the effect on suicidality (recurrent unipolar major depressive disorder and bipolar disorder) was “consistently reduces suicidality” and the use in pregnancy ([3]; pregnancy) was “associated with neural tube defects”. The “physiological response to nicotine” value [4] was “decreases their physiological response to nicotine”.

In the case of `OCCOCCN1CCN(C2=Nc3ccccc3Sc3ccccc32)CC1` [quetiapine], the “most commonly observed side effects” value [1, 16] is given as “anxiety, somnolence, EPS, dizziness, constipation, nausea, dyspepsia, rhinitis, rash, and tachycardia”, the “risk of neuroleptic malignant syndrome” value [1] is given as “extremely rare” and the “reducing suicidal ideation versus placebo” value ([5]; 300 mg/day) is given as “more effective than placebo”. The “reducing suicidal ideation versus placebo” value ([5]; 600 mg/day) was “more effective than placebo”, the “mean percent reduction in suicidal thoughts” value ([5]; 542 outpatients, bipolar I and II depression, placebo approximately 30%) was “approximately 60%” and the “reduction in suicidal ideation relative to placebo, item 10 on the MADRS” value ([5]; bipolar I and II depression) was “approximately twice”. The suicidality [6] was “effective in lowering suicidality”, the “efficacy versus placebo in combination with divalproex” value ([7]; adolescent patients with acute bipolar I mania) was “superior to placebo” and the “efficacy versus placebo in combination with lithium or divalproex” value ([7]; hospitalized adult patients with acute mania) was “superior to placebo”. For the same molecule, the “efficacy versus placebo as monotherapy in acute bipolar mania” value ([7]; hospitalized patients with bipolar I disorder, two 12-week trials) was “superior to placebo”, the “reducing depressive and anxiety symptoms versus placebo” value [8] was “superior to placebo” and the “depressive symptoms versus haloperidol” value [9] was “reduce depressive symptoms more than haloperidol”. For the same molecule, the teratogen class [3] was “Class-C teratogen”.

For `O=C1CCc2ccc(OCCCCN3CCN(c4cccc(Cl)c4Cl)CC3)cc2N1` [aripiprazole], the “efficacy versus placebo in acute use” value ([10]; bipolar I, manic and mixed symptoms, 3 week trials) is listed as “rapid and significant advantage compared to placebo”, the “efficacy versus placebo as adjunctive therapy (with lithium or valproate)” value ([10]; bipolar I, manic or mixed state, inadequate improvement on mood stabilizer monotherapy) is listed as “superior to placebo” and the “profile and tolerability with long-term use” value ([10]; long-term use up to 6 months) is listed as “favorable profile and tolerability”. The “efficacy versus placebo as adjunctive therapy with antidepressants” value [11] was “superior to placebo”, the “most commonly observed side effects” value ([1]; clinical trials in mood disorders (bipolar I disorder and major depressive disorder)) was “akathisia, sedation, restlessness, tremor, insomnia, constipation, fatigue, blurred vision and extrapyramidal disorder” and the “risk of neuroleptic malignant syndrome” value [1] was “extremely rare”. The teratogen class [3] was “Class-C teratogen”.

For `CN1CC2c3ccccc3Oc3ccc(Cl)cc3C2C1` (stereo not shown) [asenapine], the “affinity for serotonergic, dopaminergic, and a-adrenergic receptors” value [12] is given as “high affinity”, the “affinity for muscarinic cholinergic receptors” value [13] is given as “no appreciable affinity” and the “efficacy versus olanzapine in extended use” value [14, 17] is given as “efficacy comparable to olanzapine”. The “efficacy versus placebo in acute use” value [14, 17] was “rapid and significant advantage compared to placebo”, the “efficacy versus placebo as adjunctive therapy” value ([14]; bipolar patients with inadequate improvement on mood stabilizer monotherapy) was “superior to placebo” and the “profile and tolerability with long-term use” value ([14]; long-term use) was “favorable profile and tolerability”. For the same molecule, the “most commonly observed side effects” value [1, 16] was “anxiety, somnolence, EPS, dizziness, constipation, nausea, dyspepsia, rhinitis, rash, and tachycardia”, the “risk of neuroleptic malignant syndrome” value [1] was “extremely rare” and the teratogen class [3] was “Class-C teratogen”.

In the case of `c1cnc2cc3c(cc2n1)[C@@H]1CNC[C@H]3C1` [varenicline], the “risk of suicidality relative to other treatments (i.e., buproprion, Zyban)” value [15] is listed as “increase in the risk of suicidality”.
